In brackets after ≈: the same amount, converted by molar mass.
How the values were obtained:
D. immitis Slo-1 = D. immitis Slo-1 (Dirofilaria immitis, UniProt I0DFK5); experiment: In Vitro Assay 2: D. immitis Slo-1, membrane potential measurement in recombinant CHO cell line; format: cell-based
[1] = test system: Dirofilaria immitis microfilariae; experiment: In Vitro Assay 3: Dirofilaria immitis microfilariae (DIROIM L1) motility; format: cell-based; details: 72 h
[2] = test system: Dirofilaria immitis third-stage larvae; experiment: In Vitro Assay 4: Dirofilaria immitis (DIROIM L4) larval motility; format: cell-based; details: 72 h
[3] = test system: Adult Nippostrongylus brasiliensis; experiment: In Vitro Assay 5: Nippostrongylus brasiliensis (NIPOBR), acetylcholine esterase readout; format: cell-based; details: acetylcholine esterase activity in medium vs negative control, adult worms, read-out: EC50
Protocol: In Vitro Assay 5: Nippostrongylus Brasiliensis (NIPOBR)
Adult Nippostrongylus brasiliensis were washed with saline buffer containing 100 U/ml penicillin, 0.1 mg/ml streptomycin and 2.5 μg/ml amphotericin B. Test compounds were dissolved in DMSO and worms were incubated in medium in a final concentration of 10 μg/ml (10 ppm), 1 μg/ml (1 ppm) and 0.1 μg/ml (0.1 ppm) respectively. An aliquot of the medium was used to determine the acetylcholine esterase activity in comparison to a negative control. The principle of measuring acetylcholine esterase as readout for anthelmintic activity was described in Rapson et al (1986) and Rapson et al (1987).
Based on the evaluation of a wide concentration range, concentration-response curves as well as EC50-values were calculated.

C. elegans Slo-1a = C. elegans Slo-1a (Caenorhabditis elegans, UniProt Q95V25)
C. elegans Slo-1a, sequence (Q95V25 whole entry): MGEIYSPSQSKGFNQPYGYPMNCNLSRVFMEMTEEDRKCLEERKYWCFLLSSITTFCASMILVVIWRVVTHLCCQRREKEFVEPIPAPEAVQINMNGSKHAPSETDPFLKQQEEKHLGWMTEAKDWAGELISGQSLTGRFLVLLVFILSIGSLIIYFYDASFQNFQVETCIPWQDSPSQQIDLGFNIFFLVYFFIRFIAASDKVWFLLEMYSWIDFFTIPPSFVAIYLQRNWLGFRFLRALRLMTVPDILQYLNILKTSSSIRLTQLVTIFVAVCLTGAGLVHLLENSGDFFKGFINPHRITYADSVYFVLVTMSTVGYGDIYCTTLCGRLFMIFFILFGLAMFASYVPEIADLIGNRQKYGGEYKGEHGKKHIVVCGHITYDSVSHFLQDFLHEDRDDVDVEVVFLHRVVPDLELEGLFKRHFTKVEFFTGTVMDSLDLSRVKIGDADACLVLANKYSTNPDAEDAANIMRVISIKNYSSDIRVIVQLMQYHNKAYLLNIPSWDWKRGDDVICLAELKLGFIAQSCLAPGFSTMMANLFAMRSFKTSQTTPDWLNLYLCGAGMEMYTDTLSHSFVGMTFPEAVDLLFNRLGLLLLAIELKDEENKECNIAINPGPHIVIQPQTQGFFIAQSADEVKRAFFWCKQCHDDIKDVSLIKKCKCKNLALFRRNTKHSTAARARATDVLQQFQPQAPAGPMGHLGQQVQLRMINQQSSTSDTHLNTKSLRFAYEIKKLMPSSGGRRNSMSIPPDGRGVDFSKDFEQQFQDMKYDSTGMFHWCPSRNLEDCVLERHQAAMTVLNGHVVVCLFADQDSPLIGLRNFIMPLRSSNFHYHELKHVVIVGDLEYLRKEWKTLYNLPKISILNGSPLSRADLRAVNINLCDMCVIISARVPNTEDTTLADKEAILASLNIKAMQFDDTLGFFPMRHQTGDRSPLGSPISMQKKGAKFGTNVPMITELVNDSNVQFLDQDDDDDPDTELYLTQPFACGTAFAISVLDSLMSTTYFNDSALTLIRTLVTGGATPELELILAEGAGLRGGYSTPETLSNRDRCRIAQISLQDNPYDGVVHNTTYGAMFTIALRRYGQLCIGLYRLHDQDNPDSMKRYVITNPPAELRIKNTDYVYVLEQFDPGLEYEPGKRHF
Protocol: For transfection with plasmid DNA to express C. elegans Slo-1a (accession number AAL28102) CHO cells were passaged to 40% confluence before adding the transfection solution to the cell culture. The transfection solution included 300 μL OptiMEM (Life Technologies, Nr.: 31985), 2 μL (=6 μg) of plasmid DNA containing the C. elegans Slo-1a gene and 9 μL FugeneHD (Promega, Nr.: E2311), and was added to the cells prior to incubation for 48 hours at 37° C., 5% CO2. The transfection medium was exchanged for the selection medium which contains additional G418 (2 mg/ml, Invitrogen, Nr.: 10131) and the cells were seeded into 384 well plates (300 cells/well). After a few weeks, the remaining surviving cells were tested with a voltage sensitive dye (Membrane Potential Assay Kit, Molecular Devices Nr.: R8034) for K+ channel expression. Positive cell clones were purified by the limited dilution technique. For this the clone with the highest and most robust signal in the voltage sensitive dye assay was further subcloned (incubated) in 384 well plates (0.7 cells/well) to obtain clonal purity. This generated a final stable CHO cell line expressing the C. elegans Slo-1a.
Cell culture conditions Cells were cultured at 37° C. and 5% CO2 in MEMalpha with Gutamax I (Invitrogen, Nr.: 32571), supplemented with 10% (v/v) heat inactivated fetal bovine serum (Invitrogen, Nr.: 10500), G418 (1 mg/ml, Invitrogen, Nr.: 10131). Cells were detached using Accutase (Sigma, Nr.: A6964).
Membrane Potential Measurements
Laboratory compound testing was performed on 384-well microtiter plates (MTPs, Greiner, Nr.: 781092). 8000 cells/well were plated onto 384-well MTPs and cultured for 20 to 24 hours at 37° C. and 5% CO2. After removal of the cell culture medium, the cells were washed once with tyrode (150 mM NaCl, 0.3 mM KCl, 2 mM CaCl2, 1 m M MgCl2, 0.8 mM NaH2PO4, 5 mM Glucose, 28 mM Hepes, pH 7.4) and then loaded with the voltage sensitive dye of the Membrane Potential Assay Kit diluted in tyrode for 1 h at room temperature. After starting the measurement of fluorescence using a FLIPR Tetra (Molecular Devices, Exc. 510-545 nm, Emm. 565-625 nm), test compounds were added followed by the addition of KCl tyrode (final assay concentration: 70 mM KCl, 2 mM CaCl2, 1 mM MgCl2, 0.8 mM NaH2PO4, 5 mM Glucose, 28 mM Hepes, pH 7.4, including the voltage sensitive dye). The measurement was completed after 7 minutes.
EC50 values were calculated using a four-parameter plotting by the Scilligence ELN/Regmol Software Tool, Bioassay.

D. immitis Slo-1, sequence (I0DFK5 1-1119): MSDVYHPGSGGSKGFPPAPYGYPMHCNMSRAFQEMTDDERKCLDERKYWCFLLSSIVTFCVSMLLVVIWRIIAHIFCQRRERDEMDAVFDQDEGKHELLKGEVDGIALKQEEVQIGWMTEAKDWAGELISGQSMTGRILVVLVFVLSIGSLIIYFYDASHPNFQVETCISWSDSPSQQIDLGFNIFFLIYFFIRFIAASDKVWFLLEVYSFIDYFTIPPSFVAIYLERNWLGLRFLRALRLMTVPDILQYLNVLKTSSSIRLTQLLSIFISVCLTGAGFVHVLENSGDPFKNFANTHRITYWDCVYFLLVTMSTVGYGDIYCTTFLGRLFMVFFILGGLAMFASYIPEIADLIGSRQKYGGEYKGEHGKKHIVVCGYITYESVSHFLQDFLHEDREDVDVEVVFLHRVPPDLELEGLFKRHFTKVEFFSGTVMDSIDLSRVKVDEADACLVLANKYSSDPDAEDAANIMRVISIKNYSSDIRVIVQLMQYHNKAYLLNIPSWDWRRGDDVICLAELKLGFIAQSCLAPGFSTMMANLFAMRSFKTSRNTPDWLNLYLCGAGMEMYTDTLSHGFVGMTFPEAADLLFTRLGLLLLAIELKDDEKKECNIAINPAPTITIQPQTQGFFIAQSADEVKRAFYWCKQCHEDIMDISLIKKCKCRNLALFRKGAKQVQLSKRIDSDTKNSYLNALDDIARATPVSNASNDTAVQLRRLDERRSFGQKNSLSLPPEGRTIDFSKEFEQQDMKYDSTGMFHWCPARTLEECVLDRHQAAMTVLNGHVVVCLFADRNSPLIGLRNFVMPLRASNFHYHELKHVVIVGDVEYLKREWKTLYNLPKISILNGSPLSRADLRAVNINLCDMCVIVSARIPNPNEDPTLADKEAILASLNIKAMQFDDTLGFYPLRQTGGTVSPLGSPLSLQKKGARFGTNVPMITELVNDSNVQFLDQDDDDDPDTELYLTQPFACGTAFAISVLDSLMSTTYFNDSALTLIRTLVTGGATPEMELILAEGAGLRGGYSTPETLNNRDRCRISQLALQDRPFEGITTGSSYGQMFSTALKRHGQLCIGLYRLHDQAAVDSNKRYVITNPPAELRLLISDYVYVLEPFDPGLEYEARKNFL

SMILES	EC50 (D. immitis Slo-1) [nM]	EC50 [1] [µg/mL]	EC50 [2] [µg/mL]	EC50 [3] [µg/mL]	EC50 (C. elegans Slo-1a) [nM]
CC(C)n1c(C(=O)NN2CCOc3ccccc32)nc2c(-c3cc(F)cc(F)c3F)cccc21 [Example 13.1, N-(2,3-Dihydro-4H-benzo[b][1,4]oxazin-4-yl)-1-isopropyl-4-(2,3,5-trifluorophenyl)-1H-benzo[d]imidazole-2-carboxamide]	> 1000	0.1 to 1 (≈ 0.214 to 2.14 µM)	0.1 to 1 (≈ 0.214 to 2.14 µM)	> 1	100 to 1000
Cc1nn2c(N3CCOCC3)c(C(=O)NN3CCOc4ccccc43)sc2c1-c1cc(F)cc(F)c1F [Example 4.2, N-(2,3-Dihydro-4H-benzo[b][1,4]oxazin-4-yl)-6-methyl-3-morpholino-7-(2,3,5-trifluorophenyl)pyrazolo[5,1-b]thiazole-2-carboxamide]	> 1000	< 0.1	< 0.1	0.1 to 1 (≈ 0.189 to 1.89 µM)	< 100
CC(C)(O)c1c(C(=O)NN2CCOc3ccccc32)sc2c(-c3cc(F)cc(F)c3F)ccnc12 [Example 6.5, N-(2,3-Dihydro-4H-benzo[b][1,4]oxazin-4-yl)-3-(2-hydroxypropan-2-yl)-7-(2,3,5-trifluorophenyl)thieno[3,2-b]pyridine-2-carboxamide]	< 100	< 0.1	< 0.1	0.1 to 1 (≈ 0.2 to 2 µM)	< 100
CC(C)c1c(C(=O)NN2CCOc3ccccc32)[nH]c2c(-c3cc(F)cc(F)c3F)cccc12 [Example 17.1, N-(2,3-dihydro-1,4-benzoxazin-4-yl)-3-(1-methylethyl)-7-[2,3,5-tris(fluoranyl)-phenyl]-1H-indole-2-carboxamide]	> 1000	< 0.1	> 1	> 1	> 1000
CC(C)c1c(C(=O)NN2CCOc3ccccc32)nc2c(-c3cc(F)cc(F)c3F)cccn12 [Example 7.1, N-(2,3-dihydro-4H-benzo[b][1,4]oxazin-4-yl)-3-isopropyl-8-(2,3,5-trifluoro-phenyl)imidazo[1,2-a]pyridine-2-carboxamide]	> 1000	0.1 to 1 (≈ 0.214 to 2.14 µM)	0.1 to 1 (≈ 0.214 to 2.14 µM)	> 1	> 1000
CC(C)c1c(C(=O)NN2CCOc3ccccc32)ccn2c(-c3c(F)ccc(F)c3F)nnc12 [Example 15.1, N-(2,3-Dihydro-1,4-benzoxazin-4-yl)-8-isopropyl-3-(2,3,6-trifluorophenyl)-[1,2,4] triazolo [4,3-a]pyridine-7-carboxamide]	> 1000	0.1 to 1 (≈ 0.214 to 2.14 µM)	> 1	> 1	> 1000
CC(C)c1c(C(=O)NN2CCOc3ccccc32)nc2c(-c3cc(F)cc(F)c3F)nccn12 [Example 8.1, N-(2,3-Dihydro-4H-benzo[b][1,4]oxazin-4-yl)-3-isopropyl-8-(2,3,5-trifluorophenyl)-imidazo[1,2-a]pyrazine-2-carboxamide]	> 1000	0.1 to 1 (≈ 0.214 to 2.14 µM)	0.1 to 1 (≈ 0.214 to 2.14 µM)	> 1	> 1000
Cc1nn2c(C(C)C)c(C(=O)NN3CCOc4ccccc43)sc2c1-c1cc(F)cc(F)c1F [Example 4.1, N-(2,3-Dihydro-1,4-benzoxazin-4-yl)-3-isopropyl-6-methyl-7-(2,3,5-trifluorophenyl)-pyrazolo[5,1-b]thiazole-2-carboxamide]	> 1000	0.1 to 1 (≈ 0.206 to 2.06 µM)	< 0.1	> 1	< 100
Cc1nn2c(C(C)C)c(C(=O)NN3CCOc4ccccc43)nnc2c1-c1c(F)cccc1F [Example 5.1, 8-(2,6-Difluorophenyl)-N-(2,3-dihydro-1,4-benzoxazin-4-yl)-4-isopropyl-7-methyl-pyrazolo[5,1-c][1,2,4]triazine-3-carboxamide]	> 1000	< 0.1	0.1 to 1 (≈ 0.215 to 2.15 µM)	> 1	100 to 1000
